Key:
[1] = target: T1, human FXR alpha ligand binding domain (Homo sapiens, UniProt Q96RI1); assay: FRET activity assay (ligand mediated cofactor peptide interaction, LANCE); format: biochemical; conditions: GST-FXR-LBD / biotinylated SRC-1 peptide (676-700), read-out: F EC50
T1 construct: made in house; host or cells: E. coli BL21(DE3), vector pDEST15
T1 sequence (Q96RI1 187-472 isoform Q96RI1-2): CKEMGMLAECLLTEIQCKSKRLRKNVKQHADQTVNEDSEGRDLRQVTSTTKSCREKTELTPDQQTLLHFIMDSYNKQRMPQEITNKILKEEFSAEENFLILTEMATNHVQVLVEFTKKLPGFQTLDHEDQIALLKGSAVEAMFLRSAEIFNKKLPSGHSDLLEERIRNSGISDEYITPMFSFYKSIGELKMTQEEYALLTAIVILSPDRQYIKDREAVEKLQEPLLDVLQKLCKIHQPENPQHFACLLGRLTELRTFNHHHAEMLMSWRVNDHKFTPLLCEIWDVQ
Summary of the method: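 GST-tagged FXR LBD (aa 187–472, E. coli-expressed) at 20–60 ng/well with 200–600 nM biotinylated SRC-1 peptide (676–700), streptavidin-APC and Eu anti-GST in Tris pH 7.5 buffer, 1% DMSO, equilibrated 1 h dark at room temperature. TR-FRET read as 665/615 nm ratio; agonists raise signal above basal.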

[2] = target: T2, FXR ligand binding domain (Homo sapiens, UniProt Q96RI1); assay: Mammalian One Hybrid (M1H) assay, Gal4 promoter driven transactivation in HEK293 cells; format: cell-based; conditions: Gal4-FXR-LBD luciferase reporter, 16 h
T2 construct: expressed in transfected cells; host or cells: HEK293 cells, transiently transfected with pCMV-BD-FXR-LBD, pFR-Luc and pRL-CMV
T2 sequence (Q96RI1 187-472 isoform Q96RI1-2): T1 sequence (Q96RI1 187-472 isoform Q96RI1-2)
Summary of the method: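 HEK293 cells were transiently co-transfected with Gal4-DBD fused to the human FXR LBD (aa 187-472, NM_005123), a 5×GAL4-site firefly luciferase reporter and CMV-Renilla control. Compounds were added 2-4 h post-transfection (vehicle ≤0.1%) in charcoal/dextran-stripped FBS medium for 16 h. Firefly and Renilla luciferase were read sequentially, in triplicate.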

| SMILES | EC50 [1] [nM] | EC50 [2] [nM] |
| --- | --- | --- |
| O=C(O)c1cc(F)c2nc([C@]3(O)[C@@H]4CC[C@H]3C[C@H](OCc3c(C5CC5)cnn3-c3c(Cl)cccc3Cl)C4)sc2c1 [Example 47, 2-((1R,3s,5S,8r)-3-((4-Cyclopropyl-1-(2,6-dichlorophenyl)-1H-pyrazol-5-yl)methoxy)-8-hydroxybicyclo[3.2.1]octan-8-yl)-4-fluorobenzo[d]thiazole-6-carboxylic acid] | 1.1 | 7.9 |
| O=C(O)c1cccc2nc([C@]3(O)CC[C@@H](OCc4c(-c5c(Cl)cccc5Cl)noc4C4CC4)CC3)sc12 [Example 26, 2-((1s,4s)-4-((5-Cyclopropyl-3-(2,6-dichlorophenyl)isoxazol-4-yl)methoxy)-1-hydroxycyclohexyl)benzo[d]thiazole-7-carboxylic acid] | 17 | 210 |
| O=C(O)Cc1csc([C@]2(O)[C@@H]3CC[C@H]2C[C@H](OCc2c(-c4c(Cl)cccc4Cl)noc2C2CC2)C3)n1 [Example 46, 2-(2-((1R,3s,5S,8r)-3-((5-Cyclopropyl-3-(2,6-dichlorophenyl)isoxazol-4-yl)methoxy)-8-hydroxybicyclo[3.2.1]octan-8-yl)thiazol-4-yl)acetic acid] | 42 | 260 |
| O=C(O)CNC(=O)c1cc(F)c2nc([C@]3(O)[C@@H]4CC[C@H]3C[C@H](OCc3c(-c5c(Cl)cccc5Cl)noc3C3CC3)C4)sc2c1 [Example 38, 2-(2-((1R,3s,5S,8r)-3-((5-Cyclopropyl-3-(2,6-dichlorophenyl)isoxazol-4-yl)methoxy)-8-hydroxybicyclo[3.2.1]octan-8-yl)-4-fluorobenzo[d]thiazole-6-carboxamido)acetic acid] | 3 | 1270 |
| O[C@@]1(c2cnc3nn[nH]c3c2)[C@@H]2CC[C@H]1C[C@H](OCc1c(-c3c(Cl)cccc3Cl)noc1C1CC1)C2 [Example 34, (1R,3s,5S,8r)-8-(1H-[1,2,3]Triazolo[4,5-b]pyridin-6-yl)-3-((5-cyclopropyl-3-(2,6-dichlorophenyl)isoxazol-4-yl)methoxy)bicyclo[3.2.1]octan-8-ol] | 4.1 | 5.3 |
| O=C(O)c1ccnc2ccc([C@]3(O)CC[C@@H](OCc4c(-c5c(Cl)cccc5Cl)noc4C4CC4)CC3)cc12 [Example 30, 6-((1s,4s)-4-((5-Cyclopropyl-3-(2,6-dichlorophenyl)isoxazol-4-yl)methoxy)-1-hydroxycyclohexyl)quinoline-4-carboxylic acid] | 190 | > 3000 |
| O=C(O)Cc1nc([C@]2(O)[C@@H]3CC[C@H]2C[C@H](OCc2c(-c4c(Cl)cccc4Cl)noc2C2CC2)C3)oc1C(F)(F)F [Example 45, 2-(2-((1R,3s,5S,8r)-3-((5-Cyclopropyl-3-(2,6-dichlorophenyl)isoxazol-4-yl)methoxy)-8-hydroxybicyclo[3.2.1]octan-8-yl)-5-(trifluoromethyl)oxazol-4-yl)acetic acid] | 6 | 7.9 |
| O=C(O)c1ccc2sc([C@]3(O)CC[C@H](OCc4c(-c5c(Cl)cccc5Cl)noc4C4CC4)CC3)nc2c1 [Example 5, 2-((1r,4r)-4-((5-Cyclopropyl-3-(2,6-dichlorophenyl)isoxazol-4-yl)methoxy)-1-hydroxycyclohexyl)benzo[d]thiazole-5-carboxylic acid] | 620 | 1900 |

The remaining lines, values ahead:

| EC50 [1] [nM] | EC50 [2] [nM] | SMILES |
| --- | --- | --- |
| 390 | 250 | CC1(OCc2c(-c3c(Cl)cccc3Cl)noc2C2CC2)C[C@H]2CC[C@@H](C1)[C@]2(O)c1nc2c(F)cc(C(=O)O)cc2s1 (single isomer, unassigned) [Example 11-39] |
| 270 | 460 | Cc1onc(-c2c(Cl)cccc2Cl)c1CO[C@H]1C[C@H]2CC[C@@H](C1)[C@]2(O)c1nc2ccc(C(=O)O)cc2s1 [Example 11-38, 2-((1R,3r,5S,8r)-3-((3-(2,6-Dichlorophenyl)-5-methylisoxazol-4-yl)methoxy)-8-hydroxybicyclo[3.2.1]octan-8-yl)benzo[d]thiazole-6-carboxylic acid] |
| 1100 | 930 | O=C(O)c1ccc2nc([C@]3(O)[C@@H]4CC5C[C@H]3C[C@](OCc3c(-c6c(Cl)cccc6Cl)noc3C3CC3)(C5)C4)sc2c1 [Example 11-36, 2-((1R,2s,3S,5s,7s)-5-((5-Cyclopropyl-3-(2,6-dichlorophenyl)isoxazol-4-yl)methoxy)-2-hydroxyadamantan-2-yl)benzo[d]thiazole-6-carboxylic acid] |
| 44 | 180 | O=C(O)c1cc(F)c2nc(C3(O)C[C@H]4CC(OCc5c(-c6c(Cl)cccc6Cl)noc5C5CC5)C[C@H]4C3)sc2c1 (stereo partly drawn) [Example 11-46, 2-((3aR,6aS)-5-((5-Cyclopropyl-3-(2,6-dichlorophenyl)isoxazol-4-yl)methoxy)-2-hydroxyoctahydropentalen-2-yl)-4-fluorobenzo[d]thiazole-6-carboxylic acid] |
| 8.8 | 43 | Cc1onc(-c2c(Cl)cccc2Cl)c1CO[C@@H]1C[C@H]2CC[C@@H](C1)[C@]2(O)c1nc2ccc(C(=O)O)cc2s1 [Example 11-37, 2-((1R,3s,5S,8r)-3-((3-(2,6-Dichlorophenyl)-5-methylisoxazol-4-yl)methoxy)-8-hydroxybicyclo[3.2.1]octan-8-yl)benzo[d]thiazole-6-carboxylic acid] |
| 8600 | > 3000 | O=C(O)c1ccc2nc([C@]3(O)CC[C@H](OCc4c(C5CCC(F)(F)CC5)noc4C4CC4)CC3)sc2c1 [Example 11-2, 2-((1r,4r)-4-((5-Cyclopropyl-3-(4,4-difluorocyclohexyl)isoxazol-4-yl)methoxy)-1-hydroxycyclohexyl)benzo[d]thiazole-6-carboxylic acid] |
| 420 | 290 | O=C(O)c1cc(F)c2nc([C@]3(O)[C@@H]4CC[C@H]3CC(OCc3c(-c5c(Cl)cccc5Cl)noc3C3CC3)(C(F)F)C4)sc2c1 (single isomer, unassigned) [Example 11-40] |
| 16 | 1800 | O=C(O)c1cnc2cc([C@]3(O)CC[C@@H](OCc4c(-c5c(Cl)cccc5Cl)noc4C4CC4)CC3)ccc2c1 [Example 11-43, 7-((1s,4s)-4-((5-Cyclopropyl-3-(2,6-dichlorophenyl)isoxazol-4-yl)methoxy)-1-hydroxycyclohexyl)quinoline-3-carboxylic acid] |
| 1300 | 2100 | O=C(O)c1ccc2nc([C@]3(O)CC[C@@H](OCc4c(C5CCC6(CC5)CC6)noc4C4CC4)CC3)sc2c1 [Example 11-3, 2-((1s,4s)-4-((5-Cyclopropyl-3-(spiro[2.5]octan-6-yl)isoxazol-4-yl)methoxy)-1-hydroxycyclohexyl)benzo[d]thiazole-6-carboxylic acid] |
| 31 | 29 | O=C(O)c1ccc2nc(C3(O)CCC(OCc4c(-c5c(Cl)cccc5Cl)noc4C4CC4)C3)sc2c1 (centres unmarked) [Example 11-57, 2-(3-((5-Cyclopropyl-3-(2,6-dichlorophenyl)isoxazol-4-yl)methoxy)-1-hydroxy-cyclopentyl)benzo[d]thiazole-6-carboxylic acid] |
| 36 | 38 | CC1(C)C[C@](O)(c2nc3c(F)cc(C(=O)O)cc3s2)CC[C@H]1OCc1c(-c2c(Cl)cccc2Cl)noc1C1CC1 (racemic) [Example 11-33, 2-((1S,4R)-4-((5-Cyclopropyl-3-(2,6-dichlorophenyl)isoxazol-4-yl)methoxy)-1-hydroxy-3,3-dimethylcyclohexyl)-4-fluorobenzo[d]thiazole-6-carboxylic acid] |
| 4.9 | 1.9 | CC(C)(F)c1onc(-c2c(Cl)cccc2Cl)c1CO[C@@H]1C[C@H]2CC[C@@H](C1)[C@]2(O)c1nc2c(F)cc(C(=O)O)cc2s1 [Example 11-52, 2-((1R,3s,5S,8r)-3-((3-(2,6-Dichlorophenyl)-5-(2-fluoropropan-2-yl)isoxazol-4-yl)methoxy)-8-hydroxybicyclo[3.2.1]octan-8-yl)-4-fluorobenzo[d]thiazole-6-carboxylic acid] |
| 55 | 380 | O=C(O)c1cc(F)c2nc([C@]3(O)CC[C@@H](OCc4c(-c5c(Cl)cncc5Cl)noc4C4CC4)CC3)sc2c1 [Example 11-34, 2-((1s,4s)-4-((5-Cyclopropyl-3-(3,5-dichloropyridin-4-yl)isoxazol-4-yl)methoxy)-1-hydroxycyclohexyl)-4-fluorobenzo[d]thiazole-6-carboxylic acid] |
| 1500 | 2200 | O=C(O)c1ccc2nc([C@]3(O)CC[C@@H](OCc4c(-c5ccccc5C(F)F)noc4C4CC4)CC3)sc2c1 [Example 11-15, 2-((1s,4s)-4-((5-Cyclopropyl-3-(2-(difluoromethyl)phenyl)isoxazol-4-yl)methoxy)-1-hydroxycyclohexyl)benzo[d]thiazole-6-carboxylic acid] |
